Laboratory results taken from patent US4293560A, “Talampicillin 2-methoxyphenoxyacetate and pharmaceutical compositions containing it” (priority 1980, dated 1981).
Read-outs that look alike come from different tables or passages of the source.

Experiments:
[1] = rat, in vivo, po
Protocol: (§1) The sodium ampicillin and the talampicillin hydrochloride have been administered in aqueous solution; the other talampicillin salts have been administered in aqueous suspension.
(§2) At 0.5, 1,2,4 and 6 hours after the administration the animals were sacrified and their blood was taken from the portal vein.

[2] = white powder
[3] = cited from earlier work
in vivo = conditions: rat, po, 100 mg/kg
Protocol: as §1, §2

Compound | mcg/ml ampicillin, average ± standard error ([1]; 30 min) | mcg/ml ampicillin, average ± standard error ([1]; 60 min) | mcg/ml ampicillin, average ± standard error ([1]; 120 min) | mcg/ml ampicillin, average ± standard error ([1]; 240 min) | mcg/ml ampicillin, average ± standard error ([1]; 360 min) | other results
CC1(C)S[C@@H]2[C@H](NC(=O)[C@H](N)c3ccccc3)C(=O)N2[C@H]1C(=O)OC1OC(=O)c2ccccc21 (single isomer, unassigned) [talampicillin 2-methoxyphenoxyacetate, 2-methoxyphenoxyacetate of the phthalidyl ester of the 6-[D(-)-α-aminophenylacetamido]penicillanic acid] | 23.4 ± 2.4 µg/mL | 10.2 ± 0.9 µg/mL | 3.8 ± 1.1 µg/mL | 1.7 ± 0.4 µg/mL | 1.6 ± 1 µg/mL | SBC [1]: 30; storage [2]: do not show any problem of storage
CC1(C)S[C@@H]2[C@H](NC(=O)[C@H](N)c3ccccc3)C(=O)N2[C@H]1C(=O)OC1OC(=O)c2ccccc21 (single isomer, unassigned) [talampicillin, phtahlidyl ester of the 6-[D(-)-α-aminophenylacetamido]penicillanic acid] |  |  |  |  |  | blood levels of the parent ampicillin (in words) ([3]; in vivo, po): very high blood levels of the parent ampicillin; absorption (in words) ([3]; oral route, animals and man): well absorbed when administered by oral route in animals and in man
CC1(C)S[C@@H]2[C@H](NC(=O)[C@H](N)c3ccccc3)C(=O)N2[C@H]1C(=O)O [sodium ampicillin, 6-[D(-)-α-aminophenylacetamido]penicillanic acid] |  |  |  |  |  | AUC at 6 h (in vivo): 10700 ng·h/mL; concentration at 0.5 h (in vivo): 6400 ng/mL; concentration at 1 h (in vivo): 4600 ng/mL; concentration at 2 h (in vivo): 1400 ng/mL; concentration at 4 h (in vivo): 800 ng/mL; concentration at 6 h (in vivo): 200 ng/mL
CC1(C)S[C@@H]2[C@H](NC(=O)[C@H](N)c3ccccc3)C(=O)N2[C@H]1C(=O)OC1OC(=O)c2ccccc21 (some centres unmarked) [talampicillin napsylate, naphthalene 2-sulphonate of talampicillin] | 14.8 ± 3.4 µg/mL | 6.1 ± 1.8 µg/mL | 2.7 ± 0.2 µg/mL | 1.9 ± 0.6 µg/mL | 1.1 ± 0.1 µg/mL | 
